In ChEMBL document CHEMBL3046591, “Design and synthesis of some azole derivatives as potential antimicrobial agents” (2012):
Active and inactive are the calls of the source. The calls are words filed in the database; no cut-off is given here.

Key:
Type in all cases: functional
Candida tropicalis [1] = assay: Antifungal activity against Candida tropicalis ATCC 13803 after 18 hr by agar well diffusion method
Candida albicans [2] = assay: Antifungal activity against Candida albicans ATCC 60193 after 18 hr by agar well diffusion method
[3] = tested on: Mycolicibacterium smegmatis; assay: Antibacterial activity against Mycobacterium smegmatis ATCC 607 after 18 hr by agar well diffusion method
[4] = tested on: Yersinia pseudotuberculosis; assay: Antibacterial activity against Yersinia pseudotuberculosis ATCC 911 after 18 hr by agar well diffusion method
Klebsiella aerogenes [5] = assay: Antibacterial activity against Enterobacter aerogenes ATCC 13048 after 18 hr by agar well diffusion method
Escherichia coli [6] = assay: Antibacterial activity against Escherichia coli ATCC 25922 after 18 hr by agar well diffusion method
Klebsiella pneumoniae [7] = assay: Antibacterial activity against Klebsiella pneumoniae ATCC 13883 after 18 hr by agar well diffusion method
Staphylococcus aureus [8] = assay: Antibacterial activity against Staphylococcus aureus ATCC 25923 after 18 hr by agar well diffusion method
Enterococcus faecalis [9] = assay: Antibacterial activity against Enterococcus faecalis ATCC 29212 after 18 hr by agar well diffusion method
Listeria monocytogenes [10] = assay: Antibacterial activity against Listeria monocytogenes ATCC 43251 after 18 hr by agar well diffusion method
Bacillus cereus [11] = assay: Antibacterial activity against Bacillus cereus 702 Roma after 18 hr by agar well diffusion method
Candida tropicalis [12] = assay: Antifungal activity against Candida tropicalis ATCC 13803 at 5 mg after 18 hr by agar well diffusion method; conditions: ATCC 13803, 18 h, read-out: IZ
Candida albicans [13] = assay: Antifungal activity against Candida albicans ATCC 60193 at 5 mg after 18 hr by agar well diffusion method; conditions: ATCC 60193, 18 h, read-out: IZ
Enterococcus faecalis [14] = assay: Antibacterial activity against Enterococcus faecalis ATCC 29212 at 10 mg after 18 hr by agar well diffusion method; conditions: ATCC 29212, 18 h, read-out: IZ
Staphylococcus aureus [15] = assay: Antibacterial activity against Staphylococcus aureus ATCC 25923 at 10 mg after 18 hr by agar well diffusion method; conditions: ATCC 25923, 18 h, read-out: IZ
Klebsiella pneumoniae [16] = assay: Antibacterial activity against Klebsiella pneumoniae ATCC 13883 at 10 mg after 18 hr by agar well diffusion method; conditions: ATCC 13883, 18 h, read-out: IZ
[17] = tested on: Yersinia pseudotuberculosis; assay: Antibacterial activity against Yersinia pseudotuberculosis ATCC 911 at 10 mg after 18 hr by agar well diffusion method; conditions: ATCC 911, 18 h, read-out: IZ
Klebsiella aerogenes [18] = assay: Antibacterial activity against Enterobacter aerogenes ATCC 13048 at 10 mg after 18 hr by agar well diffusion method; conditions: ATCC 13048, 18 h, read-out: IZ
Escherichia coli [19] = assay: Antibacterial activity against Escherichia coli ATCC 25922 at 10 mg after 18 hr by agar well diffusion method; conditions: ATCC 25922, 18 h, read-out: IZ
Bacillus cereus [20] = assay: Antibacterial activity against Bacillus cereus 702 Roma at 10 mg after 18 hr by agar well diffusion method; conditions: read-out: IZ
Listeria monocytogenes [21] = assay: Antibacterial activity against Listeria monocytogenes ATCC 43251 at 10 mg after 18 hr by agar well diffusion method; conditions: ATCC 43251, 18 h, read-out: IZ

Row | Structure (SMILES) | inhibition zone (IZ) (Candida tropicalis [1]) | inhibition zone (IZ) (Candida albicans [2]) | inhibition zone (IZ) [3] | inhibition zone (IZ) [4] | inhibition zone (IZ) (Klebsiella aerogenes [5]) [mm] | inhibition zone (IZ) (Escherichia coli [6]) | inhibition zone (IZ) (Klebsiella pneumoniae [7]) [mm] | inhibition zone (IZ) (Staphylococcus aureus [8]) | inhibition zone (IZ) (Enterococcus faecalis [9]) | inhibition zone (IZ) (Listeria monocytogenes [10]) | inhibition zone (IZ) (Bacillus cereus [11]) | further results
1 | Cc1nn(S(=O)(=O)c2ccccc2)c(=O)n1Cc1ccco1 | inactive | inactive | 20 mm | 12 mm | 15 | 20 mm | 20 | 35 mm | 25 mm | 20 mm | 15 mm | 
2 | O=c1[nH]nc(Cc2ccccc2)n1Cc1ccco1 | inactive | inactive | 10 mm | inactive | 10 | inactive | 10 | 20 mm | 10 mm | 8 mm | 8 mm | 
3 | O=c1n(S(=O)(=O)c2ccc(Cl)cc2)nc(Cc2ccccc2)n1Cc1ccco1 | inactive | inactive | 10 mm | 8 mm | 8 | 6 mm | 10 | 15 mm | 10 mm | inactive | inactive | 
4 | CCOC(=O)Cn1nc(C)n(Cc2ccco2)c1=O | 7 mm | 9 mm | 15 mm | inactive | 10 | inactive | 10 | 8 mm | inactive | 8 mm | 6 mm | 
5 | CCCS(=O)(=O)n1nc(Cc2ccccc2)n(Cc2ccco2)c1=O | inactive | inactive | 15 mm | 10 mm | 8 | 8 mm | 10 | 15 mm | 8 mm | inactive | inactive | 
6 | Cc1nn(S(=O)(=O)c2ccc([N+](=O)[O-])cc2)c(=O)n1Cc1ccco1 | inactive | inactive | 40 mm | 12 mm | 15 | 15 mm | 20 | 15 mm | 6 mm | inactive | 15 mm | 
7 | OC(Cn1cncn1)(Cn1cncn1)c1ccc(F)cc1F [FLUCONAZOLE] |  |  |  |  |  |  |  |  |  |  |  | zone of inhibition at 5000 µg/disc (Candida tropicalis [12]): 25 mm; zone of inhibition at 5000 µg/disc (Candida albicans [13]): 25 mm
8 | CN[C@@H]1[C@H](O[C@H]2[C@H](O[C@H]3[C@H](O)[C@@H](O)[C@H](N=C(N)N)[C@@H](O)[C@@H]3N=C(N)N)O[C@@H](C)[C@]2(O)C=O)O[C@@H](CO)[C@H](O)[C@H]1O [STREPTOMYCIN] |  |  | 35 mm |  |  |  |  |  |  |  |  | 
9 | Cc1nn(Cc2nnc(S)n2-c2ccccc2)c(=O)n1Cc1ccco1 | inactive | inactive | inactive | 10 mm | 6 | 6 mm | 10 | inactive | inactive | inactive | inactive | 
10 | CC1(C)S[C@@H]2[C@H](NC(=O)[C@H](N)c3ccccc3)C(=O)N2[C@H]1C(=O)O [AMPICILLIN] | inactive | inactive |  |  |  |  |  |  |  |  |  | zone of inhibition at 10000 µg/disc (Enterococcus faecalis [14]): 10 mm; zone of inhibition at 10000 µg/disc (Staphylococcus aureus [15]): 35 mm; zone of inhibition at 10000 µg/disc (Klebsiella pneumoniae [16]): 18 mm; zone of inhibition at 10000 µg/disc [17]: > 18 mm; zone of inhibition at 10000 µg/disc (Klebsiella aerogenes [18]): 10 mm; zone of inhibition at 10000 µg/disc (Escherichia coli [19]): 10 mm; zone of inhibition at 10000 µg/disc (Bacillus cereus [20]): 15 mm; zone of inhibition at 10000 µg/disc (Listeria monocytogenes [21]): 10 mm
11 | Cc1n[nH]c(=O)n1Cc1ccco1 | inactive | inactive | 10 mm | inactive | 10 | inactive | 10 | 20 mm | inactive | 6 mm | 8 mm | 
12 | O=c1n(S(=O)(=O)c2ccc(Br)cc2)nc(Cc2ccccc2)n1Cc1ccco1 | inactive | inactive | 10 mm | 8 mm | 8 | 10 mm | 15 | 10 mm | 8 mm | inactive | inactive | 
13 | Cc1n[nH]c(=O)n1CC1CCCO1 (centres undefined) | inactive | inactive | 15 mm | inactive | 8 | inactive | 8 | 20 mm | 10 mm | 7 mm | 15 mm | 
14 | Cc1nn(Cc2n[nH]c(=O)n2Cc2ccccc2)c(=O)n1Cc1ccco1 | inactive | inactive | inactive | 10 mm | 6 | 8 mm | 10 | inactive | inactive | inactive | 6 mm | 
